Results as given in PubChem BioAssay (NCI).
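These data come from cells grown in 96-well plates and exposed to compound for 48 hours at five concentrations. At the GI50, growth is halved. Definition used: TGI = concentration required for complete inhibition of growth.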

Columns and labels:
Experiment in all cases: growth of human tumour cells (NCI), 48 h
NCI/ADR-RES ovarian = test system: NCI/ADR-RES ovarian
MDA-MB-435 = test system: MDA-MB-435
OVCAR-5 ovarian = test system: OVCAR-5 ovarian
UO-31 renal = test system: UO-31 renal
786-0 renal = test system: 786-0 renal
HCT-116 colon = test system: HCT-116 colon
K-562 leukemia = test system: K-562 leukemia
EKVX NSCLC = test system: EKVX NSCLC
SW-620 colon = test system: SW-620 colon
LOX IMVI melanoma = test system: LOX IMVI melanoma
BT-549 breast = test system: BT-549 breast
TK-10 renal = test system: TK-10 renal
UACC-257 melanoma = test system: UACC-257 melanoma
COLO 205 colon = test system: COLO 205 colon
NCI-H460 lung = test system: NCI-H460 lung
SK-MEL-5 melanoma = test system: SK-MEL-5 melanoma
PC-3 prostate = test system: PC-3 prostate
M14 melanoma = test system: M14 melanoma
MOLT-4 leukemia = test system: MOLT-4 leukemia
MALME-3M melanoma = test system: MALME-3M melanoma
UACC-62 melanoma = test system: UACC-62 melanoma
DU-145 prostate = test system: DU-145 prostate
SK-MEL-28 melanoma = test system: SK-MEL-28 melanoma
HCC-2998 colon = test system: HCC-2998 colon
SF-295 CNS = test system: SF-295 CNS
SK-MEL-2 melanoma = test system: SK-MEL-2 melanoma
NCI-H23 lung = test system: NCI-H23 lung
NCI-H522 lung = test system: NCI-H522 lung
ACHN renal = test system: ACHN renal
SF-539 CNS = test system: SF-539 CNS
SN12C renal = test system: SN12C renal
NCI-H226 lung = test system: NCI-H226 lung
SF-268 CNS = test system: SF-268 CNS
HOP-62 NSCLC = test system: HOP-62 NSCLC
SNB-19 CNS = test system: SNB-19 CNS
OVCAR-4 ovarian = test system: OVCAR-4 ovarian
RXF 393 renal = test system: RXF 393 renal
OVCAR-8 ovarian = test system: OVCAR-8 ovarian
SK-OV-3 ovarian = test system: SK-OV-3 ovarian
HCT-15 colon = test system: HCT-15 colon
CAKI-1 renal = test system: CAKI-1 renal
HT29 colon = test system: HT29 colon
U251 CNS = test system: U251 CNS
MDA-MB-231 breast = test system: MDA-MB-231 breast
CCRF-CEM leukemia = test system: CCRF-CEM leukemia
MCF7 breast = test system: MCF7 breast
T-47D breast = test system: T-47D breast
RPMI-8226 leukemia = test system: RPMI-8226 leukemia
HOP-92 NSCLC = test system: HOP-92 NSCLC
HL-60(TB) leukemia = test system: HL-60(TB) leukemia
KM12 colon = test system: KM12 colon
SNB-75 CNS = test system: SNB-75 CNS
HS 578T breast = test system: HS 578T breast
A498 renal = test system: A498 renal
IGROV1 ovarian = test system: IGROV1 ovarian

## C#Cc1nc(C(=O)NCCCCCCC(=O)NO)cs1
NCI/ADR-RES ovarian
  GI50: 335 nM
  TGI: > 100000 nM
MDA-MB-435
  GI50: 692 nM
  TGI: 3450 nM
OVCAR-5 ovarian
  GI50: 1030 nM
  TGI: 3580 nM
UO-31 renal
  GI50: 174 nM
  TGI: 332 nM
786-0 renal
  GI50: 294 nM
  TGI: 838 nM
HCT-116 colon
  GI50: 339 nM
  TGI: 1560 nM
K-562 leukemia
  GI50: 639 nM
  TGI: > 100000 nM
EKVX NSCLC
  GI50: 1550 nM
  TGI: 3190 nM
SW-620 colon
  GI50: 346 nM
  TGI: 1820 nM
LOX IMVI melanoma
  GI50: < 14.9 nM
  TGI: 53 nM
BT-549 breast
  GI50: 1470 nM
  TGI: 2850 nM
TK-10 renal
  GI50: 263 nM
  TGI: 1530 nM
UACC-257 melanoma
  GI50: 393 nM
  TGI: 2840 nM
COLO 205 colon
  GI50: 691 nM
  TGI: 2000 nM
NCI-H460 lung
  GI50: 587 nM
  TGI: 7250 nM
SK-MEL-5 melanoma
  GI50: 642 nM
  TGI: 2180 nM
PC-3 prostate
  GI50: 1830 nM
  TGI: 10100 nM
M14 melanoma
  GI50: 1220 nM
  TGI: 4030 nM
MOLT-4 leukemia
  GI50: 294 nM
  TGI: 1200 nM
MALME-3M melanoma
  GI50: 314 nM
  TGI: 1610 nM
UACC-62 melanoma
  GI50: 433 nM
  TGI: 2050 nM
DU-145 prostate
  GI50: 367 nM
  TGI: 1440 nM
SK-MEL-28 melanoma
  GI50: 1210 nM
  TGI: 5100 nM
HCC-2998 colon
  GI50: 1710 nM
  TGI: 4430 nM
SF-295 CNS
  GI50: 983 nM
  TGI: 2420 nM
SK-MEL-2 melanoma
  GI50: 1250 nM
  TGI: 3540 nM
NCI-H23 lung
  GI50: 780 nM
  TGI: 2220 nM
NCI-H522 lung
  GI50: 168 nM
  TGI: 353 nM
ACHN renal
  GI50: 897 nM
  TGI: 2190 nM
SF-539 CNS
  GI50: 794 nM
  TGI: 2240 nM
SN12C renal
  GI50: 1620 nM
  TGI: 5250 nM
NCI-H226 lung
  GI50: 1740 nM
  TGI: 6490 nM
SF-268 CNS
  GI50: 1530 nM
  TGI: 3440 nM
HOP-62 NSCLC
  GI50: 1120 nM
  TGI: 3070 nM
SNB-19 CNS
  GI50: 2210 nM
  TGI: 10000 nM
OVCAR-4 ovarian
  GI50: 1800 nM
  TGI: 5120 nM
RXF 393 renal
  GI50: 392 nM
  TGI: 1390 nM
OVCAR-8 ovarian
  GI50: 405 nM
  TGI: 2110 nM
SK-OV-3 ovarian
  GI50: 1470 nM
  TGI: 4010 nM
HCT-15 colon
  GI50: 1470 nM
  TGI: 3840 nM
CAKI-1 renal
  GI50: 997 nM
  TGI: 2310 nM
HT29 colon
  GI50: 782 nM
  TGI: 2440 nM
U251 CNS
  GI50: 1120 nM
  TGI: 2390 nM
MDA-MB-231 breast
  GI50: 318 nM
  TGI: 1100 nM
CCRF-CEM leukemia
  GI50: 284 nM
  TGI: 994 nM
MCF7 breast
  GI50: 939 nM
  TGI: 7250 nM
T-47D breast
  GI50: 288 nM
  TGI: 1540 nM
RPMI-8226 leukemia
  GI50: 312 nM
  TGI: 1550 nM
HOP-92 NSCLC
  GI50: 571 nM
  TGI: 1810 nM
HL-60(TB) leukemia
  GI50: 314 nM
  TGI: 805 nM
KM12 colon
  GI50: 1390 nM
  TGI: 3600 nM
SNB-75 CNS
  GI50: 714 nM
  TGI: 3340 nM
HS 578T breast
  GI50: 718 nM
  TGI: 4050 nM
A498 renal
  GI50: 528 nM
  TGI: 1780 nM
IGROV1 ovarian
  GI50: 572 nM
  TGI: 2150 nM
